Assay results from ChEMBL document CHEMBL1201862, “PubChem BioAssay data set” (2004).
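A five-concentration, 48-hour dose response in 96-well plates underlies each endpoint, interpolated linearly between surrounding concentrations. The concentration for 50% growth inhibition is given as GI50.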 Activity calls are given as the source filed them. Rule as the data show it: active = GI50 up to about 1.1 µM and inactive = higher. Non-standard residues stand in square brackets, D forms with d. Residues, ends and D or L forms follow the SMILES beside them. ξ: configuration not given here. *: point of attachment. NMeF = CN[C@@H](Cc1ccccc1)C(=O)O; NMeN = CN[C@@H](CC(N)=O)C(=O)O; NMeV = CN[C@H](C(=O)O)C(C)C; ξNMeV = CNC(C(=O)O)C(C)C; Boc = CC(C)(C)OC(=O)*; ξNMeA = CNC(C)C(=O)O; ξV = CC(C)C(N)C(=O)O

Assays:
Experiment in all cases: NCI anticancer screen, dose series, 48 h
[1] = tested on: M19-MEL
[2] = tested on: SNB-78
[3] = tested on: LXFL 529
[4] = tested on: RXF 631
[5] = tested on: KM-20L2
[6] = tested on: DMS-114
[7] = tested on: XF498
[8] = tested on: HOP-18
[9] = tested on: DMS-273

SMILES | GI50 [1] | GI50 [2] | GI50 [3] | GI50 [4] | GI50 [5] | GI50 [6] | GI50 [7] | GI50 [8] | GI50 [9]
Cc1cccc(NC(=O)/C(=N\NC(C)(C)C)C2NC(=S)NC2=O)c1C (stereo not drawn) | > 100 µM (inactive) | > 100 µM (inactive) | > 100 µM (inactive) | > 100 µM (inactive) | > 100 µM (inactive) | – | – | – | –
CC1(C)CC23C(=O)N(c4ccccc4)C(Nc4ccccc4)=NC2=CC(C#N)=C(C#N)C3O1 (stereo not drawn) | 94.6 µM (inactive) | > 100 µM (inactive) | > 100 µM (inactive) | > 100 µM (inactive) | > 100 µM (inactive) | 42.5 µM (inactive) | > 100 µM (inactive) | – | –
CC1=NN(C(=O)Cc2ccccc2)C(=O)/C1=C/c1c(O)ccc2ccccc12 | 33 µM (inactive) | – | – | – | – | 45.9 µM (inactive) | 1.68 µM (inactive) | 30.3 µM (inactive) | 50.5 µM (inactive)
C[C@]12CCC(=O)C=C1CC[C@@H]1C2CC[C@]2(C)c3nn(-c4ccccc4)nc3CC12 (stereo partly drawn) | > 100 µM (inactive) | > 100 µM (inactive) | > 100 µM (inactive) | – | > 100 µM (inactive) | > 100 µM (inactive) | > 100 µM (inactive) | – | > 100 µM (inactive)
BrC1=CC=C2NCCCCCC/N=C3\C=CC(Br)=CC=C3NCCCCCC/N=C\2C=C1 | > 25.5 µM (inactive) | > 25.5 µM (inactive) | – | > 25.5 µM (inactive) | > 25.5 µM (inactive) | > 25.5 µM (inactive) | – | – | > 25.5 µM (inactive)
CCOc1ccc(/N=C/c2ccc3ccccc3n2)cc1 | > 100 µM (inactive) | > 100 µM (inactive) | > 100 µM (inactive) | > 100 µM (inactive) | > 100 µM (inactive) | – | > 100 µM (inactive) | > 100 µM (inactive) | > 100 µM (inactive)
O=C(O)C1CCc2nnc(-c3ccccc3)n21 (stereo not drawn) | > 100 µM (inactive) | > 100 µM (inactive) | > 100 µM (inactive) | > 100 µM (inactive) | > 100 µM (inactive) | > 100 µM (inactive) | – | > 100 µM (inactive) | > 100 µM (inactive)
O=S(O)CCCCSSCCCCSSCCCCS(=O)O | 5.53 µM (inactive) | 15.7 µM (inactive) | 11.1 µM (inactive) | 33.7 µM (inactive) | > 100 µM (inactive) | 25.5 µM (inactive) | 6.41 µM (inactive) | 70.1 µM (inactive) | 42.6 µM (inactive)
Cc1cc(NC(=O)NC(=O)c2ccccc2[N+](=O)[O-])ccc1Oc1ncc(Cl)cn1 | 0.316 µM (active) | 0.0964 µM (active) | 0.0773 µM (active) | – | 0.0906 µM (active) | 0.0927 µM (active) | 0.0671 µM (active) | 23.4 µM (inactive) | 0.0501 µM (active)
COC(=O)c1[nH]c(=S)[nH]c(=O)c1-c1ccc(Cl)cc1 | > 50 µM (inactive) | > 50 µM (inactive) | > 50 µM (inactive) | > 50 µM (inactive) | > 50 µM (inactive) | > 50 µM (inactive) | > 50 µM (inactive) | – | > 50 µM (inactive)
COC(=O)C(C)N(C)C(=O)[C@H](CC(N)=O)N(C)C(=O)[C@@H]1CCCN1C(=O)[C@H](C(C)C)N(C)C(=O)C(C(C)C)N(C)C(=O)[C@H](Cc1ccccc1)N(C)C(=O)C(NC(=O)OC(C)(C)C)C(C)C (stereo partly drawn) (Boc-[ξV][NMeF][ξNMeV][NMeV]P[NMeN][ξNMeA]-OMe) | – | 17.9 µM (inactive) | 3.13 µM (inactive) | – | 33 µM (inactive) | 4.65 µM (inactive) | 15.4 µM (inactive) | – | 15.1 µM (inactive)
CCc1cccc(CC)c1NC(=O)C1=C(C)NC(C)=C(C(=O)Nc2c(CC)cccc2CC)C1c1ccc([N+](=O)[O-])cc1 | 21.3 µM (inactive) | – | 16.8 µM (inactive) | – | 26.7 µM (inactive) | 15.4 µM (inactive) | 18.4 µM (inactive) | – | –
N/C=N/S(=O)(=O)c1ccc(NC(=O)COC(=O)c2cccc3c(=O)c4ccccc4[nH]c23)cc1 | > 100 µM (inactive) | – | – | – | – | > 100 µM (inactive) | > 100 µM (inactive) | > 100 µM (inactive) | > 100 µM (inactive)
O=S(=O)(Sc1ccc(Cl)cc1)c1ccc(Cl)cc1 | 17.9 µM (inactive) | 24.2 µM (inactive) | 16 µM (inactive) | – | 17.8 µM (inactive) | 15.1 µM (inactive) | 20.2 µM (inactive) | – | 15.4 µM (inactive)
CC1=C(O)C(=O)C2C(=O)C1C(C)C2c1ccccc1 (stereo not drawn) | > 100 µM (inactive) | > 100 µM (inactive) | > 100 µM (inactive) | – | – | – | > 100 µM (inactive) | – | > 100 µM (inactive)
CC(=O)Nc1ccc(/C=N\N2C(=O)c3ccccc3C2=O)cc1 | > 100 µM (inactive) | > 100 µM (inactive) | > 100 µM (inactive) | – | > 100 µM (inactive) | > 100 µM (inactive) | > 100 µM (inactive) | > 100 µM (inactive) | > 100 µM (inactive)
CS(=O)(=O)CC1=Nc2nnc(CCCCCCCc3nnc4n3C(=O)C(CS(C)(=O)=O)=N4)n2C1=O | > 100 µM (inactive) | – | > 100 µM (inactive) | – | > 100 µM (inactive) | > 100 µM (inactive) | > 100 µM (inactive) | > 100 µM (inactive) | –
Cc1ccccc1NC(=O)C(=O)CC(=O)c1c(C)[n+]([O-])c2ccccc2[n+]1[O-] | > 100 µM (inactive) | > 100 µM (inactive) | > 100 µM (inactive) | – | > 100 µM (inactive) | > 100 µM (inactive) | – | > 100 µM (inactive) | > 100 µM (inactive)
CCN1CC2(C)CC[C@@H](OC)C34[C@@H]2[C@H](OC(C)=O)C2(OCO[C@@]25C[C@H](OC)C2C[C@]3(O)[C@@H]5[C@H]2O)[C@H]14 | > 100 µM (inactive) | > 100 µM (inactive) | > 100 µM (inactive) | – | > 100 µM (inactive) | > 100 µM (inactive) | – | – | –
C[C@]12CCc3nonc3C1CC[C@@H]1C2CC[C@]2(C)C(=O)/C(=N\O)CC12 (stereo partly drawn) | > 100 µM (inactive) | > 100 µM (inactive) | 77.4 µM (inactive) | > 100 µM (inactive) | > 100 µM (inactive) | > 100 µM (inactive) | > 100 µM (inactive) | > 100 µM (inactive) | > 100 µM (inactive)
CCCCOC(=O)C1C2CCC(O2)C1C(=O)OCCCC (stereo not drawn) | > 61.2 µM (inactive) | > 100 µM (inactive) | – | – | > 42.3 µM (inactive) | > 39.4 µM (inactive) | > 100 µM (inactive) | > 100 µM (inactive) | > 100 µM (inactive)
Cc1c(NC(=S)NC(=O)c2ccc([N+](=O)[O-])cc2)c(=O)n(-c2ccccc2)n1C | > 100 µM (inactive) | > 100 µM (inactive) | > 100 µM (inactive) | – | > 100 µM (inactive) | > 100 µM (inactive) | – | > 100 µM (inactive) | > 100 µM (inactive)
O=C1Nc2ccc([N+](=O)[O-])cc2/C1=N/Nc1ccc([N+](=O)[O-])cc1 | 16.1 µM (inactive) | – | 12.4 µM (inactive) | 24.7 µM (inactive) | 17.8 µM (inactive) | 19.9 µM (inactive) | 16.7 µM (inactive) | – | 10.7 µM (inactive)
Nc1nc2c(-c3ccc([N+](=O)[O-])cc3)nnn2c2ccccc12 | > 100 µM (inactive) | 81.1 µM (inactive) | > 100 µM (inactive) | – | – | – | 78.5 µM (inactive) | > 100 µM (inactive) | > 100 µM (inactive)
COC(=O)/C(=C/c1ccc(OC)cc1)c1cc(OC)c(OC)c(OC)c1 | 3.46 µM (inactive) | 5.02 µM (inactive) | 3.73 µM (inactive) | – | 1.12 µM (inactive) | 2.96 µM (inactive) | 4.89 µM (inactive) | > 100 µM (inactive) | 0.746 µM (active)
COC1OC(CO)C(O)C(OC(C)=O)C1NC(=O)N(CCCl)N=O (stereo not drawn) | > 100 µM (inactive) | > 100 µM (inactive) | > 100 µM (inactive) | > 100 µM (inactive) | > 100 µM (inactive) | > 100 µM (inactive) | > 100 µM (inactive) | > 100 µM (inactive) | > 100 µM (inactive)
